Assay results taken from PMC6080863 (ACS Catalysis, 2018).
Changes are numbered by the printed parent chain.

Tests used:
[1] = biological target: T1, DERAm (monomeric variant of ecDERA) (Escherichia coli, UniProt P0A6L0, K58E/Y259F/Y96W); test: 1H-15N HSQC NMR titration, chemical shift perturbation; assay type: binding
T1 sequence (P0A6L0 1-259 K58E/Y96W/Y259F): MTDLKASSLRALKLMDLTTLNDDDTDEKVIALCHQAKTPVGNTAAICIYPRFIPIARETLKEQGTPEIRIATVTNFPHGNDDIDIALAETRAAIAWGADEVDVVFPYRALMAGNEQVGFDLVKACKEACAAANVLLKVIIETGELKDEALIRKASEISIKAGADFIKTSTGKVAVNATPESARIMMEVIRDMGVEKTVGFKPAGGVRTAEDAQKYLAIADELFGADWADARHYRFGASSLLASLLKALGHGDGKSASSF

[2] = biological target: T2, DERAm (monomeric variant of ecDERA) (Escherichia coli, UniProt P0A6L0, K58E/Y96W); test: as above; assay type: binding
T2 sequence (P0A6L0 1-259 K58E/Y96W): T1 sequence (P0A6L0 1-259 K58E/Y96W/Y259F) with F259Y

O=P(O)(O)O [potassium phosphate]
Kd [1]: 17.9 ± 2.4 mM | Kd [2]: 18.8 ± 3.6 mM
